Source: ChEMBL document CHEMBL4152357, “Efflux pump inhibition by 11H-pyrido[2,1-b]quinazolin-11-one analogues in mycobacteria” (Bioorg Med Chem, 2018)
≈ marks a conversion by molar mass, not a printed value. Calls of active or inactive are those of the source. No cut-off for these calls is given here.

What was measured:
[1] = tested on: Mycolicibacterium smegmatis; assay: Growth inhibition of Mycobacterium smegmatis MC2 155 ATCC 700084 after 72 hrs by MTT assay; format: organism-based
[2] = biological target: T1, Multidrug efflux pump LfrA (Mycobacterium smegmatis (strain ATCC 700084 / mc(2)155)) (UniProt A0R5K5); assay: Inhibition of LfrA in Mycobacterium smegmatis MC2 155 ATCC 700084 assessed as decrease in norfloxacin MIC at 12.5 ug/ml after 72 hrs by MTT assay relative to control; details: Mycolicibacterium smegmatis MC2 155
T1 sequence (whole entry): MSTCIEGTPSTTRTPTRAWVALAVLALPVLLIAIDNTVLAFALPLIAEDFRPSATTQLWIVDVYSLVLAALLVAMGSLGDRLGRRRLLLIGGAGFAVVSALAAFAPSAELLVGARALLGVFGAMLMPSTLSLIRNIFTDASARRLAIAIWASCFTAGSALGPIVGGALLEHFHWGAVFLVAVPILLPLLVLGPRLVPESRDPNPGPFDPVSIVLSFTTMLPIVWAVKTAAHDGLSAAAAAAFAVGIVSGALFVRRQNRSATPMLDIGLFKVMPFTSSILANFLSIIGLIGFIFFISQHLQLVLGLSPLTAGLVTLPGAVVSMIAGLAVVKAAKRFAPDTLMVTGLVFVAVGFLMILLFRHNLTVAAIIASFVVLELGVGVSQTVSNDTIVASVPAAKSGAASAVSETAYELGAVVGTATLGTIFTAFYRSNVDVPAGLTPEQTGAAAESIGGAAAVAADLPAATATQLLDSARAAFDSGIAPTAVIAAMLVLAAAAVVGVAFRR

[3] = biological target: T1, Multidrug efflux pump LfrA (Mycobacterium smegmatis (strain ATCC 700084 / mc(2)155)); assay: Inhibition of LfrA in Mycobacterium smegmatis MC2 155 ATCC 700084 assessed as decrease in EtBr MIC at 100 ug/ml after 72 hrs by MTT assay relative to control; details: Mycolicibacterium smegmatis MC2 155
[4] = biological target: T1, Multidrug efflux pump LfrA (Mycobacterium smegmatis (strain ATCC 700084 / mc(2)155)); assay: Inhibition of LfrA in Mycobacterium smegmatis MC2 155 ATCC 700084 assessed as potentiation of EtBr-induced bactericidal activity at 100 ug/ml after 24 hrs; details: Mycolicibacterium smegmatis MC2 155
CC-1 = assay: Cytotoxicity against rat CC1 cells assessed as decrease in cell survival at 200 ug/ml after 24 hrs by Alamar blue reduction assay relative to control; format: cell-based; details: cc-1, 24 h
[5] = Cytotoxicity against rat CC1 cells assessed as cell survival at 100 ug/ml after 24 hrs by Alamar blue reduction assay relative to control; format: cell-based, CC-1; details: read-out: Survival
[6] = Cytotoxicity against rat CC1 cells assessed as cell survival at 50 ug/ml after 24 hrs by Alamar blue reduction assay relative to control; format: cell-based, CC-1; details: read-out: Survival
[7] = biological target: T1, Multidrug efflux pump LfrA (Mycobacterium smegmatis (strain ATCC 700084 / mc(2)155)); assay: Inhibition of LfrA in Mycobacterium smegmatis MC2 155 ATCC 700084 assessed as increase in EtBr accumulation at 25 ug/ml measured every 5 mins for 35 mins by fluorometric analysis; details: Mycolicibacterium smegmatis MC2 155
[8] = biological target: T1, Multidrug efflux pump LfrA (Mycobacterium smegmatis (strain ATCC 700084 / mc(2)155)); assay: Inhibition of LfrA in Mycobacterium smegmatis MC2 155 ATCC 700084 assessed as increase in EtBr accumulation at 50 ug/ml measured every 5 mins for 35 mins by fluorometric analysis; details: Mycolicibacterium smegmatis MC2 155
[9] = biological target: T1, Multidrug efflux pump LfrA (Mycobacterium smegmatis (strain ATCC 700084 / mc(2)155)); assay: Inhibition of LfrA in Mycobacterium smegmatis MC2 155 ATCC 700084 assessed as decrease in EtBr MIC at 0.78 ug/ml after 72 hrs by MTT assay relative to control; details: Mycolicibacterium smegmatis MC2 155
[10] = biological target: T1, Multidrug efflux pump LfrA (Mycobacterium smegmatis (strain ATCC 700084 / mc(2)155)); assay: Inhibition of LfrA in Mycobacterium smegmatis MC2 155 ATCC 700084 assessed as decrease in norfloxacin MIC at 25 ug/ml after 72 hrs by MTT assay relative to control; details: Mycolicibacterium smegmatis MC2 155
[11] = biological target: T1, Multidrug efflux pump LfrA (Mycobacterium smegmatis (strain ATCC 700084 / mc(2)155)); assay: Inhibition of LfrA in Mycobacterium smegmatis MC2 155 ATCC 700084 assessed as decrease in norfloxacin MIC at 50 ug/ml after 72 hrs by MTT assay relative to control; details: Mycolicibacterium smegmatis MC2 155
[12] = biological target: T1, Multidrug efflux pump LfrA (Mycobacterium smegmatis (strain ATCC 700084 / mc(2)155)); assay: Inhibition of LfrA in Mycobacterium smegmatis MC2 155 ATCC 700084 assessed as potentiation of norfloxacin-induced bactericidal activity at 100 ug/ml after 48 hrs; details: Mycolicibacterium smegmatis MC2 155
[13] = biological target: T1, Multidrug efflux pump LfrA (Mycobacterium smegmatis (strain ATCC 700084 / mc(2)155)); assay: Inhibition of LfrA in Mycobacterium smegmatis MC2 155 ATCC 700084 assessed as potentiation of norfloxacin-induced bactericidal activity at 12.5 ug/ml after 48 hrs; details: Mycolicibacterium smegmatis MC2 155
[14] = biological target: T1, Multidrug efflux pump LfrA (Mycobacterium smegmatis (strain ATCC 700084 / mc(2)155)); assay: Inhibition of LfrA in Mycobacterium smegmatis MC2 155 ATCC 700084 assessed as increase in norfloxacin accumulation at 25 ug/ml measured every 5 mins for 35 mins by fluorometric analysis; details: Mycolicibacterium smegmatis MC2 155
[15] = biological target: T1, Multidrug efflux pump LfrA (Mycobacterium smegmatis (strain ATCC 700084 / mc(2)155)); assay: Inhibition of LfrA in Mycobacterium smegmatis MC2 155 ATCC 700084 assessed as potentiation of norfloxacin-induced bactericidal activity at 25 ug/ml after 24 to 48 hrs; details: Mycolicibacterium smegmatis MC2 155
[16] = biological target: T1, Multidrug efflux pump LfrA (Mycobacterium smegmatis (strain ATCC 700084 / mc(2)155)); assay: Inhibition of LfrA in Mycobacterium smegmatis MC2 155 ATCC 700084 assessed as potentiation of EtBr-induced bactericidal activity at 100 ug/ml after 48 hrs; details: Mycolicibacterium smegmatis MC2 155

| SMILES | MIC [1] [µg/mL] | fold change (FC) [2] | fractional inhibitory concentration index (FICI) [2] | fold change (FC) [3] | fractional inhibitory concentration index (FICI) [3] | inhibition [4] | Activity (CC-1) [%] | viability at 24 h, 100 ug/ml [5] [%] | viability at 24 h, 50 ug/ml [6] [%] | inhibition [7] | Activity [8] [FU] | also measured |
| --- | --- | --- | --- | --- | --- | --- | --- | --- | --- | --- | --- | --- |
| O=c1c2ccc(F)cc2nc2ccccn12 | 200 (≈ 934 µM) | 2 | 0.56 |  |  |  |  |  |  |  |  |  |
| O=c1c2ccccc2nc2c(F)cc(F)cn12 | 200 (≈ 861 µM) | 4 | 0.3 | 16 | 0.5 | Active | > 50 | 52 | 80 | Active | > 255 |  |
| COc1ccc(CCN(C)CCCC(C#N)(c2ccc(OC)c(OC)c2)C(C)C)cc1OC (stereo not drawn) [VERAPAMIL] | 300 (≈ 660 µM) |  |  |  |  |  |  |  |  |  |  |  |
| Cc1cccn2c(=O)c3cc(Br)ccc3nc12 | 200 (≈ 692 µM) |  |  |  |  |  |  |  |  |  |  | fold change (FC) [9]: 2; fractional inhibitory concentration index (FICI) [9]: 0.3; fold change (FC) [10]: 4; fractional inhibitory concentration index (FICI) [10]: 0.37 |
| Cc1cccn2c(=O)c3ccccc3nc12 | 200 (≈ 951 µM) | 4 | 0.3 | 8 | 0.62 | Active | > 50 | 81 | 45 | Active | 250 |  |
| O=c1c2cccc(Cl)c2nc2ccc(F)cn12 | 200 (≈ 804 µM) |  |  | 8 | 0.62 | Active | > 50 | 86 | 84 | Active | > 500 | fold change (FC) [11]: 4; fractional inhibitory concentration index (FICI) [11]: 0.55 |
| O=c1c2cccc(F)c2nc2ccccn12 | 200 (≈ 934 µM) | 16 | 0.12 |  |  |  | > 50 | 93 | 96 |  |  | fold change (FC) [9]: 2; fractional inhibitory concentration index (FICI) [9]: 0.3; Activity (deltalog10CFU/ml) [12]: 4; Activity (deltalog10CFU/ml) [13]: 4; Activity [14]: 3000 FU |
| O=c1c2ccccc2nc2ccccn12 | 200 (≈ 1020 µM) |  |  | 8 | 0.62 | Active | > 50 | 70 | 86 | inactive | < 150 | Activity (deltalog10CFU/ml) [15]: > 3; fold change (FC) [10]: 8; fractional inhibitory concentration index (FICI) [10]: 0.25; inhibition [16]: Active; Activity [14]: 2000 FU |
| Cc1ccn2c(=O)c3cccc(F)c3nc2c1 | 200 (≈ 876 µM) | 4 | 0.3 | 8 | 0.62 | Active | > 50 | 43 | 96 | Active | > 150 |  |
